# According to patent US12691065B2, “Liposome formulations for treatment of cancers and drug resistance of cancers” (NanoTech Pharma Inc., priority 2020, dated 2026):
# How the values were obtained:
# [1] = In-vivo pharmacokinetic study, intravenous; conditions: free drug solution, CD-1 mice
# From the text: After intravenous administration, blood was collected at multiple time points for a week by cardiac puncture (3 mice per time point) and placed into EDTA coated micro containers. The samples were centrifuged to separate plasma, and plasma was transferred to another tube.
# [2] = tested on: MDA-MB-231(R) cells; experiment: MTT cytotoxicity of DOX on MDA-MB-231 versus MDA-MB-231(R); assay type: cell-based, human; conditions: 48-hour DOX treatment, each dose level
# From the text: Doxorubicin resistant cell lines of MDA-MB-231 and MCF-7 were developed in house. The resistant variants were generated by repeatedly culturing MDA-MB-231 and MCF-7 cells in the presence of 0.2 μmol/L DOX. These cells that proliferated well in the presence of doxorubicin after several passages qualified as DOX-resistant MDA-MB-231 and MCF-7 cells, which were named as MDA-MB-231(R) and MCF-7(R) cell lines, respectively. Both MDA-MB-231(R) and MCF-7(R) cell lines were characterized against non-DOX treated MDA-MB-231 and MCF-7 cell lines.
# The cell seeded plate was incubated for 24 hours at 37° C. and 5% CO2 in a standard cell culture incubator before drug treatment. […] After another 24 hours of incubation, cell viability was assessed by the MTT assay following the manufacture's protocols. Relative percent survival was determined by subtracting absorbance values obtained by media-only wells from drug treated wells and then normalizing to the no-drug control wells (cell only control). The fraction of cells affected (Fa), or cell growth inhibition (%) at each drug concentration was subsequently calculated for each well. The effect of drug combinations was then calculated and processed by a software CompuSyn for drug synergy analysis. The program employs the median-effect analysis algorithm, which produces the Combination Index (CI) value as a quantitative indicator of the degree of synergy. […]
smiles,measurement,setting,value
"COc1cccc2c1C(=O)c1c(O)c3c(c(O)c1C2=O)C[C@@](O)(C(=O)CO)C[C@@H]3O[C@H]1C[C@H](N)[C@H](O)[C@H](C)O1.Cl [DOX, Doxorubicin hydrochloride]",half-life (T1/2),[1],30 min
same,cell viability of MDA-MB-231(R) compared to MDA-MB-231,[2],markedly greater
